Legend:
wt KIT kinase = wt KIT kinase (Homo sapiens (Human), UniProt P10721); test: Wild-type KIT binding assay (Kd determination, phage-tagged kinase, qPCR)
Experimental: Kd Determinations. For most assays, including wt KIT kinase, kinase-tagged T7 phage strains were prepared in an E. coli host derived from the BL21 strain. E. coli were grown to log-phase and infected with T7 phage and incubated with shaking at 32° C. until lysis. […] The liganded beads were blocked with excess biotin and washed with blocking buffer (SeaBlock (Pierce), 1% BSA, 0.05% Tween 20, 1 mM DTT) to remove unbound ligand and to reduce non-specific binding. […] Test compounds were prepared as 111× stocks in 100% DMSO. Kds were determined using an 11-point 3-fold compound dilution series with three DMSO control points. […] The compounds were then diluted directly into the assays such that the final concentration of DMSO was 0.9%. All reactions were performed in polypropylene 384-well plate. Each was a final volume of 0.02 ml. […] The kinase concentration in the eluates was measured by qPCR.
Binding Constants (Kds). Binding constants (Kds) were calculated with a standard dose-response curve using the Hill equation: Response=Background+Signal−Background 1+(KdHill Slope/DoseHill Slope). The Hill Slope was set to −1. Curves were fitted using a non-linear least square fit with the Levenberg-Marquardt algorithm.

KIT D816V [1] = biological target: KIT D816V (Homo sapiens (Human), UniProt P10721, D816V); test: KIT D816V biochemical enzymatic activity assay (EZReader 2 mobility shift); details: at APPKM for ATP, 20 μM ATP, 60 minutes
Sequence of KIT D816V (Homo sapiens (Human), UniProt P10721, D816V) (P10721 26-976 D816V): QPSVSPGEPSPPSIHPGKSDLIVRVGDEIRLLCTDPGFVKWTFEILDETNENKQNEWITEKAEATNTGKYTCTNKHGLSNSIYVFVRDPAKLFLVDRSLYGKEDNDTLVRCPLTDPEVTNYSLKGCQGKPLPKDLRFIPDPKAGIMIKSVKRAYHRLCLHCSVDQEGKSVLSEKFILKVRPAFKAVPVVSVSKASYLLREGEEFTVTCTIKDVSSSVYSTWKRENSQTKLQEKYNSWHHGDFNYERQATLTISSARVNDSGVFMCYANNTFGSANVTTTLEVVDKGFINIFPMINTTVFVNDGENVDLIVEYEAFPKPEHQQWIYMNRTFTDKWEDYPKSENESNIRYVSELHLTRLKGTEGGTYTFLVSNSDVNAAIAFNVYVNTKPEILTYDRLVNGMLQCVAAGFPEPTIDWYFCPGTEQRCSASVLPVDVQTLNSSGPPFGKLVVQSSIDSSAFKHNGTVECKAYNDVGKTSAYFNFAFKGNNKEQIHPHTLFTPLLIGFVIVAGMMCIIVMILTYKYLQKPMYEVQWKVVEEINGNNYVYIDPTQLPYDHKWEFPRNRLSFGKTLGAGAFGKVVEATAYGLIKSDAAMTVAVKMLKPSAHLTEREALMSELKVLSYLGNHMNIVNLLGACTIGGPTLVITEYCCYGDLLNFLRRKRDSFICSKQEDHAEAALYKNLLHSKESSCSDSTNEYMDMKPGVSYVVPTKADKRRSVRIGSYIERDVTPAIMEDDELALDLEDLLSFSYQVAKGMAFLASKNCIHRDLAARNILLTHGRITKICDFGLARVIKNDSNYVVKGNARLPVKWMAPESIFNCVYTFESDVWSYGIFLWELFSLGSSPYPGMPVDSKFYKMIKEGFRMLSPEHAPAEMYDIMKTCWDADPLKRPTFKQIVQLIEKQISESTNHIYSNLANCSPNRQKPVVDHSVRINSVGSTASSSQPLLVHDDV
Source text: (§1) PDGFRα and KIT enzymatic activity was monitored using the Perkin Elmer electrophoretic mobility shift technology platform, the EZReader 2.
(§2) Within the linear, steady-state phase of the kinase enzymatic reaction, the mixed pool of phosphorylated (product) and non-phosphorylated (substrate) peptides was passed through the microfluidic system of the PerkinElmer EZ Reader 2, under an applied electric potential difference. The presence of the phosphate group on the product peptide provided a difference in mass and charge between that of the substrate peptide, resulting in a separation of the substrate and product pools in the sample (Perrin et al., Expert Opin Drug Discovery 2010 Jan. 5(1):51-63).
(§3) As the product and substrate peptide mixture passes the lasers within the instrument, these pools are detected (λex=488 nm, λem=568 nm) and resolved as separate peaks. The ratio between these peaks reflects the activity of the compound at that concentration, in that well, under those conditions.
(§4) All test articles were dissolved in 100% DMSO at a stock concentration of 10 mM. A 100×, 10-point, 4-fold serial dilution of all test compounds was created in 100% DMSO, starting at a relevant concentration, usually 1 mM. A volume of 0.130 μL of each concentration was transferred to the relevant well of a 384-well assay plate (Greiner 781 201) using a TTPLabtech Mosquito nano-liter dispenser. Using the Multidrop, the remaining constituents of the reaction were then added to the 0.130 μL of compound as follows:
The plate was read on a Caliper EZReader 2.

KIT D816V [2] = biological target: KIT D816V (Homo sapiens (Human), UniProt P10721, D816V/V560G); test: HMC1.2 autophosphorylation assay (phospho-Y719 KIT AlphaLISA); type: cell-based; details: HMC1.2 cell line, KIT autophosphorylation at tyrosine 719, 90 minutes; read-out: KIT (P-KIT HMC1.2 (nM))
Sequence of KIT D816V (Homo sapiens (Human), UniProt P10721, D816V/V560G) (P10721 26-976 V560G/D816V): as the sequence (P10721 26-976 D816V) above, with V535G counted along it
Experimental: 10,000 HMC1.2 cells were incubated in 22 μL culture media (phenol-red free IMDM, no serum) in each well of a 384-well plate and serum starved overnight in a tissue culture incubator (5% CO2, 37° C.). […] 10 μL of 100 μg/mL streptavidin donor beads (Perkin Elmer) were added to each well, blocked from light with solid black adhesive and shaken at 300 rpm at room temperature for 2 hours. Fluorescence signal was obtained on Envision (Perkin Elmer) by AlphaScreen 384 well HTS protocol.

UT-7 cells = test: UT-7 cell proliferation with SCF stimulation as a measure of wild-type KIT activity (CellTiter-Glo); type: cell-based, human; details: SCF-stimulated UT-7 cell proliferation
Source text: UT-7 Cell Proliferation with SCF Stimulation Assay as a Measure of Wild-Type KIT Activity
UT-7 cells are human megakaryoblastic leukemia cell lines that can be grown in culture with dependence on granulocyte macrophage colony stimulating factor (GM-CSF) or stem cell factor (SCF). UT-7 cells respond to SCF stimulation by activation of the KIT receptor tyrosine kinase and subsequent downstream signaling that can support cell growth and proliferation (Kuriu et al, 1999; Komatsu et al, 1991; Sasaki et al, 1995). Test compounds were assayed for their ability to inhibit SCF-stimulated proliferation of UT-7 cells.
Inhibition of SCF-stimulated UT-7 cell proliferation was assessed using the CellTiter-Glo assay that quantifies the amount of adenosine triphosphate (ATP) present, which is a readout of metabolically active cells and is directly proportional to the number of viable cells in culture. The ability of test compounds to inhibit SCF-stimulated UT-7 cell proliferation was determined using a 10-point dose curve ranging from 25 μM to 95.4 pM of test compound.
UT-7 cells were maintained in IMDM supplemented with 10% FBS, 5 ng/mL GM-CSF and 100 units/mL Penicillin-Streptomycin and grown in a 37° C. humidified tissue culture incubator. UT-7 cells were washed once with serum free, GM-CSF free IMDM. Cells were then resuspended in IMDM containing 4% FBS and 50 ng/mL SCF and seeded at 2500 cells per well in a volume of 22 μL in a 384-well microplate. A 10-point dose concentration series of test compounds (25.0 μM to 95.4 pM) were then added to the cells in a volume of 3.1 μL to each well (0.25% DMSO final concentration) and placed in a tissue culture incubator (5% CO2, 37° C.) for 72 hours. After 3-days with test compound, CellTiter-Glo reagent was prepared fresh and 25 μL of reagent was added to each well. The plate was mixed by shaking for 10 minutes at RT at 300 rpm on a plate shaker. The plate was read on an EnVision plate reader using the Ultra Sensitive Luminescence protocol for a 384-well plate.

PDGFRα D842V = PDGFRα D842V (Homo sapiens (Human), UniProt P16234, D842V); test: PDGFRα D842V biochemical enzymatic activity assay (EZReader 2 mobility shift); details: at APPKM for ATP, 25 μM ATP, 90 minutes
Sequence of PDGFRα D842V (P16234 24-1089 D842V): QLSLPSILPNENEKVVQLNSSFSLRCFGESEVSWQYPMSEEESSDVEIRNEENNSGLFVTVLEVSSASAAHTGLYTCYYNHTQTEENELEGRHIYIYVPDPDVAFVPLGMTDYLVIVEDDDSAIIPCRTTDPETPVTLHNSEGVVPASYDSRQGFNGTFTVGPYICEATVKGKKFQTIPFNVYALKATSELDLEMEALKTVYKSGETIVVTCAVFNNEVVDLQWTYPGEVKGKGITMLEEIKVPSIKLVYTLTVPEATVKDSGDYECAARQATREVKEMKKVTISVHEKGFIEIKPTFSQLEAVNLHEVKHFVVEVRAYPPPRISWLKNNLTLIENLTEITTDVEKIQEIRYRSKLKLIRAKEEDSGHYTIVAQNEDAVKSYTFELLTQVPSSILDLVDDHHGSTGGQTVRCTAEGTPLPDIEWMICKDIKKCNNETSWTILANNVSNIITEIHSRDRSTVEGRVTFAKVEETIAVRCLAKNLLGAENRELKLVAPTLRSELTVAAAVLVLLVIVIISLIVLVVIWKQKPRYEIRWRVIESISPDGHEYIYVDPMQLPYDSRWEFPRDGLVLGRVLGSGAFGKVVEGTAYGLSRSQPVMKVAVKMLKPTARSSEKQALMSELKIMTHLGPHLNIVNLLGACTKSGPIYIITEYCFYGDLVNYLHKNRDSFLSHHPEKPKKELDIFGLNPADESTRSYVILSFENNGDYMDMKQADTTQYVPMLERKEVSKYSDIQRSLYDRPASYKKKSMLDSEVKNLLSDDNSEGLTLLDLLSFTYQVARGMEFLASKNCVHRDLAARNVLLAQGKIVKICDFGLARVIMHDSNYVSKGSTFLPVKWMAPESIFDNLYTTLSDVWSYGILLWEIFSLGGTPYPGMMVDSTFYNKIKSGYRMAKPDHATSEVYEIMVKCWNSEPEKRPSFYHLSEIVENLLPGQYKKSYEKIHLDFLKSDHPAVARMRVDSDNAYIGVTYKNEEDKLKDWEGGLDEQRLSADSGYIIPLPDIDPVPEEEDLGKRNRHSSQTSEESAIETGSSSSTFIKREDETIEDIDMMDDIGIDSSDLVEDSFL
Source text: as §1, §2, §3
Inhibition of KIT (D816V) PDGFRα (D842V) Mutant Biochemical Enzymatic Activity
as §4
The reaction was stopped by the addition of 70 μl of Stop buffer (100 mM HEPES pH 7.5, 0.015% Brij 35, 35 mM EDTA and 0.2% of Coating Reagent 3, Caliper Lifesciences). The plate was read on a Caliper EZReader 2.

Sequence of wt KIT kinase (P10721 26-976): as the sequence (P10721 26-976 D816V) above, with V791D counted along it

Row | Kd (wt KIT kinase) | IC50 (KIT D816V [1]) | IC50 (KIT D816V [2]) | IC50 (PDGFRα D842V) | Compound | IC50 (UT-7 cells; Homo sapiens, UT7, 72 h) | IC50 (UT-7 cells; 72 hours)
1 | < 10 nM | 0.31 to 1 nM | 4.6 to 10 nM | ≤ 0.3 nM | C[C@](N)(c1ccc(F)cc1)c1cnc(N2CCN(c3ncnn4cc(-c5cnn([C@@H]6COC[C@@H]6O)c5)cc34)CC2)nc1 (single isomer, unassigned) [Compound 17] | 90.1 to 150 nM | –
2 | < 10 nM | ≤ 0.3 nM | < 4.5 nM | ≤ 0.3 nM | C[C@](N)(c1ccc(F)cc1)c1cnc(N2CCN(c3ncnn4cc(-c5cnn([C@H]6COC[C@@H]6O)c5)cc34)CC2)nc1 (single isomer, unassigned) [Compound 18] | 90.1 to 150 nM | –
3 | < 10 nM | ≤ 0.3 nM | < 4.5 nM | ≤ 0.3 nM | C[C@](N)(c1ccc(F)cc1)c1cnc(N2CCN(c3ncnn4cc(-c5cnn([C@H]6COC[C@H]6O)c5)cc34)CC2)nc1 (single isomer, unassigned) [Compound 20] | 90.1 to 150 nM | –
4 | < 10 nM | ≤ 0.3 nM | < 4.5 nM | ≤ 0.3 nM | C[C@](N)(c1ccc(F)cc1)c1cnc(N2CCN(c3ncnn4cc(-c5cnn([C@@H]6CC[C@H]6O)c5)cc34)CC2)nc1 (single isomer, unassigned) [Compound 22] | 90.1 to 150 nM | –
5 | – | – | – | ≤ 0.3 nM | C[C@](N)(c1ccc(F)cc1)c1cnc(N2CCN(c3ncnn4cc(-c5cnn(C6COC6)c5)cc34)CC2)nc1 [Compound 7, (S)-1-(4-Fluorophenyl)-1-(2-(4-(6-(1-(oxetan-3-yl)-1H-pyrazol-4-yl)pyrrolo[2,1-f][1,2,4]triazin-4-yl)piperazin-1-yl)pyrimidin-5-yl)ethan-1-amine] | 90.1 to 150 nM | –
6 | – | – | – | ≤ 0.3 nM | C[C@H](O)Cn1cc(-c2cc3c(N4CCN(c5ncc([C@@](C)(N)c6ccc(F)cc6)cn5)CC4)ncnn3c2)cn1 [Compound 9] | 90.1 to 150 nM | –
7 | < 10 nM | ≤ 0.3 nM | 4.6 to 10 nM | ≤ 0.3 nM | C[C@](N)(c1ccc(F)cc1)c1cnc(N2CCN(c3ncnn4cc(-c5cnn([C@H]6C[C@H](O)C6)c5)cc34)CC2)nc1 [Compound 11, trans-3-{4-[4-(4-{5-[1-Amino-1-(4-fluoro-phenyl)-ethyl]-pyrimidin-2-yl}-piperazin-1-yl)-pyrrolo[2,1-f][1,2,4]triazin-6-yl]-pyrazol-1-yl}-cyclobutanol] | – | 90.1 to 150 nM

More lines, now with the values behind:

Row | Compound | Kd (wt KIT kinase) | IC50 (KIT D816V [1]) | IC50 (KIT D816V [2]) | IC50 (PDGFRα D842V) | IC50 (UT-7 cells; Homo sapiens, UT7, 72 h) | IC50 (UT-7 cells; 72 hours)
8 | CC(C)(O)Cn1cc(-c2cc3c(N4CCN(c5ncc([C@@](C)(N)c6ccc(F)cc6)cn5)CC4)ncnn3c2)cn1 [Compound 1, (S)-1-(4-(4-(4-(5-(1-Amino-1-(4-fluorophenyl)ethyl)pyrimidin-2-yl)piperazin-1-yl)pyrrolo[2,1-f][1,2,4]triazin-6-yl)-1H-pyrazol-1-yl)-2-methylpropan-2-ol] | – | – | – | – | 150 to 200 nM | –
9 | CC(C)(CO)n1cc(-c2cc3c(N4CCN(c5ncc([C@@](C)(N)c6ccc(F)cc6)cn5)CC4)ncnn3c2)cn1 [Compound 2, (S)-2-(4-(4-(4-(5-(1-amino-1-(4-fluorophenyl)ethyl)pyrimidin-2-yl)piperazin-1-yl)pyrrolo[2,1-f][1,2,4]triazin-6-yl)-1H-pyrazol-1-yl)-2-methylpropan-1-ol] | – | – | – | – | 150 to 200 nM | –
10 | C[C@@H](O)Cn1cc(-c2cc3c(N4CCN(c5ncc([C@@](C)(N)c6ccc(F)cc6)cn5)CC4)ncnn3c2)cn1 [Compound 3, (R)1-{4-[4-(4-{5-[(S)-1-Amino-1-(4-fluoro-phenyl)-ethyl]-pyrimidin-2-yl}-piperazin-1-yl)-pyrrolo[2,1-f][1,2,4]triazin-6-yl]-pyrazol-1-yl}-propan-2-ol] | – | – | – | – | < 90 nM | –
11 | C[C@H](CO)n1cc(-c2cc3c(N4CCN(c5ncc([C@@](C)(N)c6ccc(F)cc6)cn5)CC4)ncnn3c2)cn1 [Compound 5, (R)-2-(4-(4-(4-(5-((S)-1-Amino-1-(4-fluorophenyl)ethyl)pyrimidin-2-yl)piperazin-1-yl)pyrrolo[2,1-f][1,2,4]triazin-6-yl)-1H-pyrazol-1-yl)propan-1-ol] | – | – | – | – | < 90 nM | –
12 | C[C@@H](CO)n1cc(-c2cc3c(N4CCN(c5ncc([C@@](C)(N)c6ccc(F)cc6)cn5)CC4)ncnn3c2)cn1 [Compound 6, (S)-2-(4-(4-(4-(5-((S)-1-amino-1-(4-fluorophenyl)ethyl)pyrimidin-2-yl)piperazin-1-yl)pyrrolo[2,1-f][1,2,4]triazin-6-yl)-1H-pyrazol-1-yl)propan-1-ol] | – | – | – | – | < 90 nM | –
13 | C[C@](N)(c1ccc(F)cc1)c1cnc(N2CCN(c3ncnn4cc(-c5cnn(CC6(O)CC6)c5)cc34)CC2)nc1 [Compound 12, (S)-1-((4-(4-(4-(5-(1-Amino-1-(4-fluorophenyl)ethyl)pyrimidin-2-yl)piperazin-1-yl)pyrrolo[2,1-f][1,2,4]triazin-6-yl)-1H-pyrazol-1-yl)methyl)cyclopropan-1-ol] | – | – | – | ≤ 0.3 nM | 90.1 to 150 nM | –
14 | C[C@](N)(c1ccc(F)cc1)c1cnc(N2CCN(c3ncnn4cc(-c5cnn(C6(CO)CC6)c5)cc34)CC2)nc1 [Compound 13, (S)-(1-(4-(4-(4-(5-(1-Amino-1-(4-fluorophenyl)ethyl)pyrimidin-2-yl)piperazin-1-yl)pyrrolo[2,1-f][1,2,4]triazin-6-yl)-1H-pyrazol-1-yl)cyclopropyl)methanol] | – | – | – | ≤ 0.3 nM | 90.1 to 150 nM | –

Reference: patent US10829493B2, “Compositions and methods for treating KIT- and PDGFRA-mediated diseases” (Blueprint Medicines Corporation, priority 2019, dated 2020)
